Reference: ChEMBL document CHEMBL5380826, “Conformationally Restricted σ1 Receptor Antagonists from (-)-Isopulegol” (J Med Chem, 2023)
The source made the active and inactive calls. The rule behind the calls is not given here.

Legend:
[1] = target: Glutamate receptor ionotropic, NMDA 2B (Mus musculus, UniProt P35438+Q01097); assay: Displacement of [3H]ifenprodil from GluN2B in mouse LTK cells assessed as inhibition constant measured after 120 mins by scintillation counting method; format: cell-based
[2] = target: T1, Sigma intracellular receptor 2 (Rattus norvegicus, UniProt Q5U3Y7); assay: Displacement of [3H]di-o-tolylguanidine from rat liver membrane sigma 2 receptor assessed as inhibition constant measured after 120 mins by scintillation counting method; format: cell membranes
T1 sequence (Q5U3Y7 whole entry): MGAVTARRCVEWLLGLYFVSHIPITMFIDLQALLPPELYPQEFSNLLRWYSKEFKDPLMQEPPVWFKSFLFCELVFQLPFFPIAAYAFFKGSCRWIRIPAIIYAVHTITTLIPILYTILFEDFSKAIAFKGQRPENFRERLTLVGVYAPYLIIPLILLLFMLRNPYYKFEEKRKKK

[3] = target: Sigma non-opioid intracellular receptor 1 (Cavia porcellus, UniProt Q60492); assay: Displacement of [3H]-(+)-pentazocine from guinea pig brain membrane sigma 1 receptor assessed as inhibition constant measured after 120 mins by scintillation counting method; format: cell membranes
[4] = Plasma protein binding in human by HPAC method; format: ADME, cell-free; settings: read-out: PPB (converted)
[5] = Lipophilicity, logD of the compound at pH 7.4 by LC-MS analysis; format: physicochemical; settings: buffer
Mus musculus [6] = assay: Antiallodynic activity in ip dosed capsaicin-induced allodynia CD1 mouse model measured after 15 mins; format: functional; settings: CD1, 0.25 h
Mus musculus [7] = assay: Antiallodynic activity in capsaicin-induced mechanical allodynia CD1 mouse model assessed as increase in paw withdrawal latency at 32 mg/kg, sc pretreated for 30 mins followed by capsaicin addition and measured after 15 mins; format: functional, organism-based; settings: time 45.0 min
Mus musculus [8] = assay: Antiallodynic activity in capsaicin-induced allodynia CD1 mouse model at 16 mg/kg, ip measured after 15 mins relative to control; format: functional; settings: 0.25 h
[9] = target: Glutamate receptor ionotropic, NMDA 2B (Mus musculus) (UniProt Q01097); assay: Displacement of [3H]ifenprodil from GluN2B in mouse LTK cells at 1 uM measured after 120 mins by scintillation counting method relative to control; format: cell-based
[10] = target: T2, Sigma intracellular receptor 2 (Rattus norvegicus) (UniProt Q5U3Y7); assay: Displacement of [3H]di-o-tolylguanidine from rat liver membrane sigma 2 receptor at 1 uM measured after 120 mins by scintillation counting method relative to control; format: cell membranes
T2 sequence (whole entry): T1 sequence (Q5U3Y7 whole entry)

Mus musculus [11] = assay: Antiallodynic activity in capsaicin-induced allodynia CD1 mouse model at 16 mg/kg, sc pretreated for 30 mins followed by capsaicin addition and measured after 15 mins relative to control; format: functional; settings: time 45 min, 0.75 h
Mus musculus [12] = assay: Antiallodynic activity in capsaicin-induced mechanical allodynia CD1 mouse model assessed as increase in paw withdrawal latency at 4 to 32 mg/kg, sc pretreated for 30 mins followed by capsaicin addition and measured after 15 mins; format: functional, organism-based; settings: dose 4-32 mg/kg, time 45.0 min
Mus musculus [13] = assay: Antiallodynic activity in sc dosed capsaicin-induced allodynia CD1 mouse model pretreated for 30 mins followed by capsaicin addition and measured after 15 mins; format: functional; settings: CD1, 0.75 h, time 45 min
Mus musculus [14] = assay: Antiallodynic activity in capsaicin-induced mechanical allodynia CD1 mouse model assessed as increase in paw withdrawal latency at 16 mg/kg, sc pretreated with PRE-084 followed by compound addition; format: functional, organism-based
[15] = Metabolic stability in C57BL/6 mouse liver microsomes assessed as compound remaining incubated for 90 mins in presence of NADPH by LC-MS analysis; format: ADME, Microsome; settings: read-out: Activity

Sequence of Sigma non-opioid intracellular receptor 1 (Q60492 whole entry): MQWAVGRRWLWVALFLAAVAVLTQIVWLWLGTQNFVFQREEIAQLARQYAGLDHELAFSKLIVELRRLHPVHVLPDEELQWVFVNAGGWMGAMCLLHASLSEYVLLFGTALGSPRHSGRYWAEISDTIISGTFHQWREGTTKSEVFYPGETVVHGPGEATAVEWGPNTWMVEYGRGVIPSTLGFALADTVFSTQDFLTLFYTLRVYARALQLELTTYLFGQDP
Sequence of Glutamate receptor ionotropic, NMDA 2B (Q01097 whole entry, one chain of several): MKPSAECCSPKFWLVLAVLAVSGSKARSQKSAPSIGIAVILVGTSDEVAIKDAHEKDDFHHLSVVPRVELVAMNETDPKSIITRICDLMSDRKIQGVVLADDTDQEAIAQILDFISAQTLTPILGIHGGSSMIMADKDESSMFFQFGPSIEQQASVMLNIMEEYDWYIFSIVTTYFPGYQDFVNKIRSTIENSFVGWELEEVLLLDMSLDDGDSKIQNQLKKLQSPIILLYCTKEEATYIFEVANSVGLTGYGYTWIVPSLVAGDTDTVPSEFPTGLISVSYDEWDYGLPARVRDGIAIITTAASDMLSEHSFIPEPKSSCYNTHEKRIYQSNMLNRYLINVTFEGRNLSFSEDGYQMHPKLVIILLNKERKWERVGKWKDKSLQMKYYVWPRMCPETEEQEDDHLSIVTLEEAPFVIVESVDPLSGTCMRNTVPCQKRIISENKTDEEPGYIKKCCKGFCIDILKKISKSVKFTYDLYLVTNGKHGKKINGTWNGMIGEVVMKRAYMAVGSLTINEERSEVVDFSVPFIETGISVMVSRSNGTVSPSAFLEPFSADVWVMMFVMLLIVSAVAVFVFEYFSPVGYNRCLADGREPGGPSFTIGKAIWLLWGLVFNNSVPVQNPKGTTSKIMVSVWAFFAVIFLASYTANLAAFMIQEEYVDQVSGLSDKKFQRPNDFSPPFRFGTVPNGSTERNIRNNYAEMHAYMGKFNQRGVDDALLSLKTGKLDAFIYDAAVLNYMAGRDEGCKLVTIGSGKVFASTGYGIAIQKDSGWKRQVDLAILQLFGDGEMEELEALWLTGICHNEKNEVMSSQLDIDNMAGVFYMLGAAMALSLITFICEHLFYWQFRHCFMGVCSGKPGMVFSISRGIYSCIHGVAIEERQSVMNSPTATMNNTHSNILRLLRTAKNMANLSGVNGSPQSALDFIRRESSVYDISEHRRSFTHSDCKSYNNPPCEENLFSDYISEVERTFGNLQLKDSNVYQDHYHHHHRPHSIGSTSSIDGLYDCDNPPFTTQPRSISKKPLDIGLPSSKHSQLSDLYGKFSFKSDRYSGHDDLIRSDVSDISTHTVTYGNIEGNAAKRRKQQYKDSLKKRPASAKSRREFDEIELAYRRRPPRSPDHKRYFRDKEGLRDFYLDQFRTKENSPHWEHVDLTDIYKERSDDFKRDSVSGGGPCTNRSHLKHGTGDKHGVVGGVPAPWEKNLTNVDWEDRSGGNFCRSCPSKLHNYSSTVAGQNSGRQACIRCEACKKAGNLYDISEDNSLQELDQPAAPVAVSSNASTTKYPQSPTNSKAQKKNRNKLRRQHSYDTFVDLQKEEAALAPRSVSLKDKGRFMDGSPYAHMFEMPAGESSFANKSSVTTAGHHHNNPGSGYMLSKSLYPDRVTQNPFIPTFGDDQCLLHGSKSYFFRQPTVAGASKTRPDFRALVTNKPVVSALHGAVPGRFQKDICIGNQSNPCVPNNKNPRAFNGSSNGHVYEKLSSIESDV
Sequence of Glutamate receptor ionotropic, NMDA 2B (Mus musculus) (Q01097 whole entry): as the sequence (Q01097 whole entry, one chain of several) above

Compound	Ki [1] [nM]	Ki [2] [nM]	Ki [3] [nM]	other results
C[C@@H]1CC[C@@H]([C@](C)(O)CNCCCCc2ccccc2)[C@@H](O)C1	511	265	43	
C[C@@H]1CC[C@@H]2[C@H](C1)OCO[C@]2(C)CNCCCCc1ccccc1	263	273	42	
C[C@@H]1CC[C@@H]2[C@@H](C1)OCO[C@@]2(C)CNCCCCc1ccccc1	61	86	69	fraction unbound [4]: 0.061; logD [5]: 2.67
Cc1cc(OCCN2CCOCC2)nn1-c1ccc2ccccc2c1	> 58		> 1000	ED50 (Mus musculus [6]): 26.3 mg/kg; Activity (Mus musculus [7]): Active; Activity (Mus musculus [8]): 43%
C[C@@H]1CC[C@@H]2[C@H](C1)O[C@@H]1CN(CCCCc3ccccc3)C[C@@]2(C)O1	890	779	54	
C[C@@H]1CC[C@@H]2[C@@H](C1)O[C@@H]1CN(CCCCc3ccccc3)C[C@@]2(C)O1		1600	805	inhibition [9]: 0%
C[C@@H]1CC[C@@H]2[C@@H](C1)O[C@H]1CN(CCCCc3ccccc3)C[C@]2(C)O1			2100	inhibition [9]: 6%; fraction unbound [4]: < 0.02; logD [5]: 3.96; inhibition [10]: 0%
C[C@@H]1CC[C@@H]2[C@H](C1)OC1CN(CCCCc3ccccc3)C[C@]2(C)O1 (single isomer, unassigned)			725	inhibition [9]: 0%; inhibition [10]: 0%
C[C@@H]1CC[C@@H]2[C@@H](C1)OC(C)(C)O[C@]2(C)CN1CCC(Cc2ccccc2)CC1	423	880	114	
CN1CCN(CCc2ccc(Cl)c(Cl)c2)CC1	49		449	

Compounds with a lower Ki [3], results first:

Ki [1] [nM]	Ki [2] [nM]	Ki [3] [nM]	Compound	other results
267	123	3.5	C[C@@H]1CC[C@@H]2[C@H](C1)OCO[C@]2(C)CN1CCC(Cc2ccccc2)CC1	
313	525	8.6	C[C@@H]1CC[C@@H]2[C@H](C1)OCO[C@@]2(C)CNCCCCc1ccccc1	
125	172	1	C[C@@H]1CC[C@@H]([C@@](C)(O)CN2CCC(Cc3ccccc3)CC2)[C@@H](O)C1	
1300	649	16	C[C@@H]1CC[C@@H]2[C@@H](C1)OC(C)(C)O[C@@]2(C)CN1CCC(Cc2ccccc2)CC1	
408	322	9.7	C[C@@H]1CC[C@@H]2[C@@H](C1)OCO[C@]2(C)CNCCCCc1ccccc1	
92	194	2.8	C[C@@H]1CC[C@@H]([C@](C)(O)CN2CCC(Cc3ccccc3)CC2)[C@H](O)C1	
1300	850	8.2	C[C@@H]1CC[C@@H]([C@@](C)(O)CNCCCCc2ccccc2)[C@H](O)C1	fraction unbound [4]: 0.073; logD [5]: 1.84
53	36	1.2	C[C@@H]1CC[C@@H]([C@@](C)(O)CN2CCC(Cc3ccccc3)CC2)[C@H](O)C1	fraction unbound [4]: 0.122; Activity (Mus musculus [11]): ~89%; Activity (Mus musculus [12]): Active; ED50 (Mus musculus [13]): ~8 mg/kg; logD [5]: 3.05; Activity (Mus musculus [14]): inactive; remaining at 1.5 h [15]: 19%
36	119	5	C[C@@H]1CC[C@@H]2[C@@H](C1)OCO[C@@]2(C)CN1CCC(Cc2ccccc2)CC1	logD [5]: 3.45
205	145	4.9	C[C@@H]1CC[C@@H]2[C@H](C1)OCO[C@@]2(C)CN1CCC(Cc2ccccc2)CC1	
508	207	31	C[C@@H]1CC[C@@H]([C@](C)(O)CNCCCCc2ccccc2)[C@H](O)C1	
370	379	1.6	C[C@@H]1CC[C@@H]2[C@@H](C1)OCO[C@]2(C)CN1CCC(Cc2ccccc2)CC1	
1060	424	7	C[C@@H]1CC[C@@H]([C@@](C)(O)CNCCCCc2ccccc2)[C@@H](O)C1	
45	75	2.9	COc1ccc(CC2CCN(C[C@](C)(O)[C@@H]3CC[C@@H](C)C[C@H]3O)CC2)cc1	
363	216	18	C[C@@H]1CC[C@@H]([C@](C)(O)CN2CCC(Cc3ccccc3)CC2)[C@@H](O)C1	
